# Assay results from US20240392315A1, “COMPOSITION FOR CELL ADDITION” (priority 2021, published 2024).
# Where two headings read alike, the source gives them in different places.
# Columns and labels:
# HEK293 cells [1] = assay type: cell-based, human
# HEK293 cells [2] = system: HEK293 cells
# HEK293 cells [3] = conditions: for culture supernatant genome titer / cell lysate genome titer / cell lysate genome integrity / culture supernatant genome integrity: ethanol 0.28 v/v %; for culture supernatant genome titer: 3 days after transfection
# Text: In the same manner as in Example 1, “1.
# HEK293 cells [4] = conditions: for Full rate / AAV2 particle number: ethanol 0.56 v/v %, AAV2 produced in cells
# Procedure: AAV2 particles (whole particles with and without AAV2 genome) extracted from the culture supernatant and producing cells were measured using a commercially available AAV2 ELISA kit (PROGENE, AAV2 Titration ELISA) and according to the instructions of the kit.
# The proportion (Full rate) of AAV2 particles containing the integrated AAV2 genome was calculated from the total number of AAV2 particles quantified by the ELISA method and the quantitative value of particles containing the integrated AAV2 genome obtained from ddPCR.
# AAV2-producing cells = system: AAV2-producing cells
# Procedure: In order to identify metabolic changes that occurred in AAV2-producing cells when ethanol was added and important factors, intracellular proteins were extracted from cells with and without addition of ethanol during AAV2 production, the extracted proteins were analyzed by liquid chromatography-mass spectrometry (LC-MS) and proteins whose expression increased or decreased during AAV2 production due to the presence or absence of ethanol addition were analyzed.
# [5] = 48 and 72 hours after transfection of plasmid DNA for AAV2 production
# [6] = 48 hr, protein vs control (no ethanol addition)
# [7] = 72 hr, protein vs control (no ethanol addition)
# [8] = Downregulated pathway when ethanol was added, time after transfection
# [9] = Upregulated pathway when ethanol was added, time after transfection
# Procedure for Hela cells: AAV2 was extracted from the culture supernatant and producing cells and an AAV2 solution was prepared. Three days after adding the AAV2 solution to cultured Hela cells, the number of cells expressing the GFP protein derived from the added AAV2 was measured, and the number of cells infected by the AAV2 solution per mL was calculated.
compound,measurement,setting,value
"OCC(O)CO [Glycerol, glycerol]",genome titer,"HEK293 cells [1]; test (3), additive 0.73 v/v %, AAV2 in cells, 3 days after transfection, control 2.26E+07",4.50E+07 vg/μL
same,genome integrity,"HEK293 cells [1]; test (3), additive 0.73 v/v %, AAV2 in cells, control 51.9",58.9%
same,genome titer,"HEK293 cells [1]; test (4), additive 0.38 v/v %, AAV2 in cells, control 2.40E+07",2.78E+07 vg/μL
same,genome integrity,"HEK293 cells [1]; test (4), additive 0.38 v/v %, AAV2 in cells, control 53.4",55.2%
same,genome titer,"HEK293 cells [1]; test (4), additive 1.15 v/v %, AAV2 in cells, control 2.40E+07",3.66E+07 vg/μL
same,genome integrity,"HEK293 cells [1]; test (4), additive 1.15 v/v %, AAV2 in cells, control 53.4",58.5%
"CO [Methanol, methanol]",genome titer,"HEK293 cells [1]; test (4), additive 0.33 v/v %, AAV2 in cells, control 2.40E+07",2.94E+07 vg/μL
same,genome integrity,"HEK293 cells [1]; test (4), additive 0.33 v/v %, AAV2 in cells, control 53.4",58.4%
CCO [ethanol],cell proliferation rate during AAV2 production,HEK293 cells [2]; ethanol amounts where intracellular AAV2 genome titer is higher than control,equivalent to or higher than in the control condition
same,viability of the producing cells on day 3 after transfection,"HEK293 cells [2]; ethanol amounts where intracellular AAV2 genome titer is higher than control, FIG. 1C",maintained higher than in the control condition
same,culture supernatant genome titer,"HEK293 cells [3]; AAV1, control 3.34E+06",5.09E+06 vg/μL
same,cell lysate genome titer,"HEK293 cells [3]; AAV1, control 2.67E+06",4.67E+06 vg/μL
same,cell lysate genome integrity,"HEK293 cells [3]; AAV1, control 43.3",54.2%
same,culture supernatant genome integrity,"HEK293 cells [3]; AAV1, control 49.3",58.6%
same,culture supernatant genome titer,"HEK293 cells [3]; AAV6, control 1.20E+05",1.08E+05 vg/μL
same,cell lysate genome titer,"HEK293 cells [3]; AAV6, control 1.60E+07",2.05E+07 vg/μL
same,culture supernatant genome integrity,"HEK293 cells [3]; AAV6, control 23.7",28.6%
same,cell lysate genome integrity,"HEK293 cells [3]; AAV6, control 51.8",55.1%
same,"amount of AAV1 produced (genome titer) and genome integrity, in culture supernatant and within cells",HEK293 cells [3]; when ethanol was added,improved
same,amount of AAV6 produced within cells (genome titer),HEK293 cells [3]; when ethanol was added,improved
same,genome integrity of AAV6 in culture supernatant and within cells,HEK293 cells [3]; when ethanol was added,improved
same,rate of incorporation of AAV2-derived genome into the produced AAV2 capsid,"HEK293 cells [4]; AAV2 produced with addition of ethanol vs control, Table 3",higher
same,Full rate,"HEK293 cells [4]; test (1), control 2.30",3.58%
same,AAV2 particle number,"HEK293 cells [4]; test (1), control 9.86E+11",1.41E+12 particles/mL
same,AAV2 particle number,"HEK293 cells [4]; test (2), control 1.04E+12",1.13E+12 particles/mL
same,Full rate,"HEK293 cells [4]; test (2), control 3.12",3.38%
same,infection titer (infecting cells and expressing GFP per volume of lysate),"Hela cells; AAV2 vector produced with ethanol addition vs control, Table 4",high
same,infection titer,"Hela cells; ethanol 0.56 v/v %, intracellular AAV2 extract, same amount of genome titer, control 1.36E+08",1.63E+08 ifu/mL
same,genome titer of AAV2 both in cells and in the culture supernatant,"HEK293 cells [1]; ethanol 0.09 to 2.2 V/V %, particularly at not exceeding 1.1 v/v %, vs no ethanol, FIG. 1A, 1B",improved
same,genome integrity,"HEK293 cells [1]; ethanol 0.56 v/v %, intracellular AAV2 extract, control 45.6",54.7%
same,genome titer,"HEK293 cells [1]; ethanol 0.56 v/v %, intracellular AAV2 extract, ddPCR primer for ITR region, control 4.40E+07",6.59E+07 vg/μL
same,percentage of integrated genome in AAV2 in the producing cells,"HEK293 cells [1]; ethanol added within the range of about 2v/v %, FIG. 2A",clearly higher
same,proportion of the integrated genome in AAV2,"HEK293 cells [1]; ethanol addition during AAV2 production, FIG. 2A, 2B",improved
same,genome titer,"HEK293 cells [1]; test (1), ethanol 0.56 v/v %, AAV2 produced in cells, control 2.26E+07",5.05E+07 vg/μL
same,genome titer,"HEK293 cells [1]; test (2), ethanol 0.56 v/v %, AAV2 produced in cells, control 3.23E+07",3.81E+07 vg/μL
same,"pathway change, CLEAR Signaling Pathway",AAV2-producing cells; [5],activated
same,"pathway change, Estrogen Receptor Signaling",AAV2-producing cells; [5],activated
same,"pathway change, Interferon Signaling",AAV2-producing cells; [5],suppressed
same,"pathway change, NAD Signaling",AAV2-producing cells; [5],activated
same,"pathway change, Necroptosis Signaling Pathway",AAV2-producing cells; [5],suppressed
same,"pathway change, Protein Kinase A Signaling",AAV2-producing cells; [5],activated
same,"pathway change, Role of Hypercytokinemia/hyperchemokinemia in the Pathogenesis of influenza",AAV2-producing cells; [5],suppressed
same,"pathway change, Superpathway of Cholesterol Biosynthesis",AAV2-producing cells; [5],activated
same,Fold Change CAPN5,AAV2-producing cells; [6],2.10
same,Fold Change DUSP9,AAV2-producing cells; [6],−1.30
same,Fold Change GLUL,AAV2-producing cells; [6],−1.80
same,Fold Change GNG2,AAV2-producing cells; [6],1.75
same,Fold Change GNPTG,AAV2-producing cells; [6],−1.59
same,Fold Change H1-4,AAV2-producing cells; [6],−1.33
same,Fold Change HPS5,AAV2-producing cells; [6],100
same,Fold Change IFI35,AAV2-producing cells; [6],100
same,Fold Change IFIT1,AAV2-producing cells; [6],−1.60
same,Fold Change IFIT3,AAV2-producing cells; [6],−1.73
same,Fold Change IFITM3,AAV2-producing cells; [6],1.19
same,Fold Change ISG15,AAV2-producing cells; [6],−1.77
same,Fold Change MED14,AAV2-producing cells; [6],1.16
same,Fold Change MERTK,AAV2-producing cells; [6],1.44
same,Fold Change MITF,AAV2-producing cells; [6],−1.33
same,Fold Change NAGLU,AAV2-producing cells; [6],100
same,Fold Change NGFR,AAV2-producing cells; [6],2.60
same,Fold Change NPRL3,AAV2-producing cells; [6],100
same,Fold Change PKN (paxillin),AAV2-producing cells; [6],−1.31
same,Fold Change PRKAG2,AAV2-producing cells; [6],100
same,Fold Change SMAD3,AAV2-producing cells; [6],100
same,Fold Change TIMM10,AAV2-producing cells; [6],−8.00
same,Fold Change TNIP1,AAV2-producing cells; [6],−100
same,Fold Change TRPM1,AAV2-producing cells; [6],−2.58
same,Fold Change BAX,AAV2-producing cells; [7],1.11
same,Fold Change CAPN5,AAV2-producing cells; [7],1.51
same,Fold Change CCL5,AAV2-producing cells; [7],−1.79
same,Fold Change DHCR24,AAV2-producing cells; [7],−1.03
same,Fold Change DXO,AAV2-producing cells; [7],100
same,Fold Change FADD,AAV2-producing cells; [7],1.54
same,Fold Change GLUL,AAV2-producing cells; [7],−1.91
same,Fold Change GNG2,AAV2-producing cells; [7],1.60
same,Fold Change HADHA,AAV2-producing cells; [7],1.23
same,Fold Change HADHB,AAV2-producing cells; [7],1.29
same,Fold Change HMGCS1,AAV2-producing cells; [7],−1.21
same,Fold Change HPS5,AAV2-producing cells; [7],100
same,Fold Change IFI35,AAV2-producing cells; [7],−100
same,Fold Change IFIT1,AAV2-producing cells; [7],−1.53
same,Fold Change IFIT3,AAV2-producing cells; [7],−1.51
same,Fold Change INS,AAV2-producing cells; [7],1.58
same,Fold Change IRE3 (interferon regulatory factor 3),AAV2-producing cells; [7],1.09
same,Fold Change ISG15,AAV2-producing cells; [7],−1.52
same,Fold Change MED6,AAV2-producing cells; [7],−100
same,Fold Change MED14,AAV2-producing cells; [7],1.07
same,Fold Change MITF,AAV2-producing cells; [7],−1.28
same,Fold Change MSMG1 (methylsterol monooxygenase 1),AAV2-producing cells; [7],−1.07
same,Fold Change MT-CYB,AAV2-producing cells; [7],3.49
same,Fold Change MT-ND4,AAV2-producing cells; [7],−1.65
same,Fold Change NAGLU,AAV2-producing cells; [7],−1.74
same,Fold Change NFKB1,AAV2-producing cells; [7],1.07
same,Fold Change NGFR,AAV2-producing cells; [7],2.35
same,Fold Change NTN1,AAV2-producing cells; [7],−1.60
same,Fold Change POLRZI (RNA polymerase II subunit I),AAV2-producing cells; [7],−1.42
same,Fold Change PPP1R140 (protein phosphatase 1 regulatory inhibitor subunit 14C),AAV2-producing cells; [7],−1.29
same,Fold Change PRKAG2,AAV2-producing cells; [7],100
same,Fold Change PTPRK,AAV2-producing cells; [7],−1.31
same,Fold Change RAF1,AAV2-producing cells; [7],−1.29
same,Fold Change RXRA,AAV2-producing cells; [7],−1.40
same,Fold Change SC5D,AAV2-producing cells; [7],100
same,Fold Change SLC29A1,AAV2-producing cells; [7],−1.28
same,Fold Change TIMM10,AAV2-producing cells; [7],1.51
same,Fold Change TNIP1,AAV2-producing cells; [7],−100
same,Fold Change TOMM6,AAV2-producing cells; [7],1.63
same,Fold Change TOMM7,AAV2-producing cells; [7],−1.40
same,Fold Change TP53,AAV2-producing cells; [7],−1.18
same,"Regulated timing, Interferon Signaling",AAV2-producing cells; [8],"48 hr, 72 hr"
same,"Regulated timing, Necroptosis Signaling Pathway",AAV2-producing cells; [8],"48 hr, 72 hr"
same,"Regulated timing, Role of Hypercytokinemia/hyperchemokinemia in the Pathogenesis of influenza",AAV2-producing cells; [8],72 h
same,"Regulated timing, Activation of IRF by Cytosolic Pattern recognition receptors","AAV2-producing cells; Pathway where change was identified when ethanol was added, time after transfection",72 h
same,"Regulated timing, CLEAR Signaling Pathway",AAV2-producing cells; [9],"48 hr, 72 hr"
same,"Regulated timing, Estrogen Receptor Signaling",AAV2-producing cells; [9],72 h
same,"Regulated timing, NAD Signaling",AAV2-producing cells; [9],72 h
same,"Regulated timing, Protein Kinase A Signaling",AAV2-producing cells; [9],"48 hr, 72 hr"
same,"Regulated timing, Superpathway of Cholesterol Biosynthesis",AAV2-producing cells; [9],72 h
"CC(C)O [Isopropanol, isopropanol]",genome titer,"HEK293 cells [1]; test (4), additive 0.61 v/v %, AAV2 in cells, control 2.40E+07",2.26E+07 vg/μL
same,genome integrity,"HEK293 cells [1]; test (4), additive 0.61 v/v %, AAV2 in cells, control 53.4",58.5%
"C[S+](C)[O-] [DMSO, dimethyl sulfoxide]",TFday 3 VCD,"HEK293 cells [2]; test (5), additive 0.57 v/v %, day 3 after transfection, control 4.17E+06",4.58E+06 cells/mL
same,TF day 3 Viability,"HEK293 cells [2]; test (5), additive 0.57 v/v %, day 3 after transfection, control 78.5",81.5%
same,cell growth and substance production,HEK293 cells [2]; when the concentration is low,improving
same,improving integrity of the genome in produced AAV2 and genome titer (productivity),"HEK293 cells [1]; DMSO, Table 8",effective
same,genome titer,"HEK293 cells [1]; test (5), additive 0.57 v/v %, AAV2 produced in cells, control 2.40E+07",3.35E+07 vg/μL
same,genome integrity,"HEK293 cells [1]; test (5), additive 0.57 v/v %, AAV2 produced in cells, control 53.4",59.3%
